Laboratory results as given in patent publication US12454675B2, “Method of increasing protein yield in mammalian cells in serum-free culture medium” (AGENCY FOR SCIENCE, TECHNOLOGY AND RESEARCH, priority 2016, dated 2025).

Tested on: SH87 cells
Experiment: Specific maltose consumption rate, Monod model
Assay type: cell-based, Chinese Hamster
Details: non-linear regression
Protocol: Specific substrate consumption rate (qs) between culture times t1 and t2 was determined by plotting substrate concentration (S) vs IVCD according to Equation 4. −qs=(St2−St1)/IVCD St2=−qs×IVCD+St1 Equation 4
Specific substrate consumption rate (qs) was fitted into a Monod model according to Equation 5, where qs_max is the maximum specific substrate consumption rate, S is the substrate concentration, and Ks is the affinity constant. qs=(qs_max×S)/(Ks+S) Equation 5
To characterize the maltose metabolism in the maltose supplemented cultures, the specific maltose consumption rates were obtained from plots of maltose concentrations against cumulative integral viable cell densities (IVCD) according to Equation 4. […] Comparing with published specific monosaccharide consumption rates using 3.6 g/l of monosaccharides (Altamirano et al., 2000), the maximum specific maltose consumption rate determined here is similar to the specific consumption rates of fructose (0.21 ng/cell/day) and galactose (0.21 ng/cell/day) while being lower than the measured specific consumption rates of glucose (0.76 ng/cell/day) and mannose (0.88 ng/cell/day). […] While the present inventors noted that these parameters can be more accurately determined in continuous cultures, it may be practically challenging at low maltose concentrations since growth rates will be low.

For `OC[C@H]1O[C@H](O[C@H]2[C@H](O)[C@@H](O)[C@H](O)O[C@@H]2CO)[C@H](O)[C@@H](O)[C@@H]1O` [maltose], the “affinity constant (Ks)” value was 7.03 g/L and the “maximum specific maltose consumption rate (qs_max)” value was 0.257 ng/cell/day.
